Source: ChEMBL document CHEMBL1201862, “PubChem BioAssay data set” (2004)
Active and inactive are the calls of the source.

Legend:
[1] = molecular target: Luciferin 4-monooxygenase (Photinus pyralis, UniProt P08659); experiment: inhibition of purified Photinus pyralis luciferase – biochemical, luminescence, dose response (AID 1891)
[2] = alpha-synuclein stem-loop luciferase translation blockers – H4 neuroglioma cells, luminescence, confirmation (AID 1988); assay type: functional, cell-based
[3] = luciferase reporter signal suppression in cells – H4 neuroglioma cells, luminescence, dose response (AID 1990); assay type: functional, cell-based
[4] = Luminescence Cell-Based Dose Response HTS to Identify Inhibitors of 5'UTR Stem-Loop Driven Prion Protein mRNA Translation in H4 Neuroglioblastoma Cells. [Related pubchem assays: 1827 (Project Summary), 1813 (Primary HTS)]; assay type: functional
[5] = Fluorescence Cell-Based Dose Response to Identify Inhibitors of Thrombin Receptor-Activating Peptide SFLLRN-Mediated P-Selectin Induction on Platelets. [Related pubchem assays: 1663 (Primary HTS), 1889 (retest at dose ), 1891 (counterscreen), 1678 (Project Summary)]; assay type: functional
[6] = Luminescence Cell-Based Dose Confirmation HTS to Identify Inhibitors of Platelet Dense Granule Release. [Related pubchem assays: 1663 (Primary HTS), 1678 (Summary of Project)]; assay type: functional
[7] = molecular target: Serine/threonine-protein phosphatase (Homo sapiens, UniProt Q9BPW0); experiment: inhibition of protein phosphatase 5 activity – biochemical, fluorescence, dose response (AID 2395)
[8] = molecular target: Serine/threonine-protein phosphatase PP1-alpha catalytic subunit (Homo sapiens, UniProt P62136); experiment: inhibition of protein phosphatase 1 activity – biochemical, fluorescence, dose response (AID 2394)
Vero [9] = experiment: cells; assay type: functional, cell-based; conditions: Chlorocebus sabaeus
Vero [10] = experiment: cells; assay type: functional; conditions: Chlorocebus sabaeus
Vero [11] = experiment: inhibition of WNV-induced cytopathic effect – cell-based, CPE readout (AID 1621); assay type: functional; conditions: Chlorocebus sabaeus
Galanin receptor type 2 = Galanin receptor type 2 (Homo sapiens, UniProt O43603); experiment: Dose Response cell-based high-throughput screening assay to identify antagonists of galanin receptor 2 (GALR2). [Related pubchem assays: 828, 866 ]; assay type: functional
[12] = molecular target: Aryl hydrocarbon receptor (Homo sapiens, UniProt P35869); experiment: Luminescence-based cell-based high throughput dose response assay for activators of the Aryl Hydrocarbon Receptor (AHR). [Related pubchem assays: 2796 (Primary screen (AHR activators in singlicate)), 2845 (Confirmation screen (AHR activators in triplicate)), 434939 (Counterscreen (PXR activators in triplicate)), 2804 (Summary (AHR activators))]; assay type: ADME
[13] = molecular target: T1, Long-chain-fatty-acid--AMP ligase FadD28 (Mycobacterium tuberculosis, UniProt P9WQ59); experiment: Fluorescence polarization aasay to screen for inhibitors that compete for the binding of FadD28 to a bisubstrate Measured in Biochemical System Using Plate Reader - 2147-01_Inhibitor_Dose_CherryPick_Activity.; assay type: functional, Mycobacterium tuberculosis H37Rv
T1 sequence (P9WQ59 whole entry): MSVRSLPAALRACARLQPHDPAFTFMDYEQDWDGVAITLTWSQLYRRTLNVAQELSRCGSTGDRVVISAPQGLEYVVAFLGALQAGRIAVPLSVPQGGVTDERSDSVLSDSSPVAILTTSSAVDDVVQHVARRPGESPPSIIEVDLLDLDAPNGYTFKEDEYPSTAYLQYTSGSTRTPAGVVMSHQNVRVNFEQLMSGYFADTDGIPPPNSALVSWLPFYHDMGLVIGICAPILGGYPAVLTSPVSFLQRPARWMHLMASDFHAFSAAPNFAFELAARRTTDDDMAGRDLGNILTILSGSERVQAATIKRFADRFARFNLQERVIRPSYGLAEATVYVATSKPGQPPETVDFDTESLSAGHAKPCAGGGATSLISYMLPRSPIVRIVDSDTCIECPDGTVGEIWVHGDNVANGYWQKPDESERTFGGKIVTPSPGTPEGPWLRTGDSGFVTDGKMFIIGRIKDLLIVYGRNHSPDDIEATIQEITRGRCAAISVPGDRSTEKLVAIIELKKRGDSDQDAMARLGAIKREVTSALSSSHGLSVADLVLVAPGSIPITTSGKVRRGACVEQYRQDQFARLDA

[14] = molecular target: Voltage-gated inwardly rectifying potassium channel KCNH2 (Homo sapiens, UniProt Q12809); experiment: concentration-dependent hERG rescue from blockers – cell-based, thallium flux, dose response (AID 2121); assay type: ADME
Sequence of Voltage-gated inwardly rectifying potassium channel KCNH2 (Q12809 whole entry): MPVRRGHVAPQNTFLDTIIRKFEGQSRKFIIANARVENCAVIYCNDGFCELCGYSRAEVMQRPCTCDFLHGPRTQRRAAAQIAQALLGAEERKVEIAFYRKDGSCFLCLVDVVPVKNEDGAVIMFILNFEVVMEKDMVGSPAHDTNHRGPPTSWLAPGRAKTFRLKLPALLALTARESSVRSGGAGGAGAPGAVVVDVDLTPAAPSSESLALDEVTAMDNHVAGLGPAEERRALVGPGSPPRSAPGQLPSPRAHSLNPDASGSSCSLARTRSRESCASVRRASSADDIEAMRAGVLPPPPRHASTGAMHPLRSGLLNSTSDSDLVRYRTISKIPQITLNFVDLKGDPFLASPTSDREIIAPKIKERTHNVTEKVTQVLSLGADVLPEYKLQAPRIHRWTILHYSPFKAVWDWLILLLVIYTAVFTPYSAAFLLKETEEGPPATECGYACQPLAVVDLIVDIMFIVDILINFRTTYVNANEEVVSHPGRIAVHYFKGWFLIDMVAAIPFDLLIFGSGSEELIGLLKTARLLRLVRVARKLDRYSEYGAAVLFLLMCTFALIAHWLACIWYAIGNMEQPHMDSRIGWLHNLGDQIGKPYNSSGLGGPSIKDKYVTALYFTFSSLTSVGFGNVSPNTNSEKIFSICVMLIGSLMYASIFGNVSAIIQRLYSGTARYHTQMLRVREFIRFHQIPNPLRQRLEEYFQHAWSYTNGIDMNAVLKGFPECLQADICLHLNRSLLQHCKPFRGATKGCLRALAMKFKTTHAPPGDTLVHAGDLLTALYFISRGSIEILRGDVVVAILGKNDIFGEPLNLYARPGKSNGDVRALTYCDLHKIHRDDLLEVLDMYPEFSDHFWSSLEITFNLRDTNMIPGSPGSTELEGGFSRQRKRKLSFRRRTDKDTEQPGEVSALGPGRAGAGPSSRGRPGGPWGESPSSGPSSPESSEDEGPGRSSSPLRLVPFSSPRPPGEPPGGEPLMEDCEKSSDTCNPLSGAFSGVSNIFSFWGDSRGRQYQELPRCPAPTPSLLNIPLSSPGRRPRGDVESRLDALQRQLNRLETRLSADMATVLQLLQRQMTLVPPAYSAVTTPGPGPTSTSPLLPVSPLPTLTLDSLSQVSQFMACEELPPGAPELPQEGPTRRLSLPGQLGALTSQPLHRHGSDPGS

Sequence of Serine/threonine-protein phosphatase PP1-alpha catalytic subunit (P62136 whole entry): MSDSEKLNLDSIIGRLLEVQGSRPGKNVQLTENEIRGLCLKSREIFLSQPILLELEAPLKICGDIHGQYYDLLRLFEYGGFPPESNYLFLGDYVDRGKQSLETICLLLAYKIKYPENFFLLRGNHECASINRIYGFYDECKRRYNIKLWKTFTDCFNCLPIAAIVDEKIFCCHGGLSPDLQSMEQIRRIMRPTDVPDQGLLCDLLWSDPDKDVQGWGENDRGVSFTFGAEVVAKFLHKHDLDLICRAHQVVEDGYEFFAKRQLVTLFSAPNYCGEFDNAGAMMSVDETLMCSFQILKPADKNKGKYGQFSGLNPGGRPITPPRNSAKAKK
Sequence of Galanin receptor type 2 (O43603 whole entry): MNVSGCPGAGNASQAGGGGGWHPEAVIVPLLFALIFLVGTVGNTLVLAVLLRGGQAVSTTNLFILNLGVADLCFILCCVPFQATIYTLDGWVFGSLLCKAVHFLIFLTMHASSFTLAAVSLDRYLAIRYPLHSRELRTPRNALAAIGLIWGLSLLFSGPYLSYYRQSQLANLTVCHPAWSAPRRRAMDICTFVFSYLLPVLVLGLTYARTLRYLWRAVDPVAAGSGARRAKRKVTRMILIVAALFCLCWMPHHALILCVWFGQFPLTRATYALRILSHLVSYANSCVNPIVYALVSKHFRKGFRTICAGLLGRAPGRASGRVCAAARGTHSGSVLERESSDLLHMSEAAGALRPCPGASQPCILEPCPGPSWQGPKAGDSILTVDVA
Sequence of Serine/threonine-protein phosphatase (Q9BPW0 whole entry): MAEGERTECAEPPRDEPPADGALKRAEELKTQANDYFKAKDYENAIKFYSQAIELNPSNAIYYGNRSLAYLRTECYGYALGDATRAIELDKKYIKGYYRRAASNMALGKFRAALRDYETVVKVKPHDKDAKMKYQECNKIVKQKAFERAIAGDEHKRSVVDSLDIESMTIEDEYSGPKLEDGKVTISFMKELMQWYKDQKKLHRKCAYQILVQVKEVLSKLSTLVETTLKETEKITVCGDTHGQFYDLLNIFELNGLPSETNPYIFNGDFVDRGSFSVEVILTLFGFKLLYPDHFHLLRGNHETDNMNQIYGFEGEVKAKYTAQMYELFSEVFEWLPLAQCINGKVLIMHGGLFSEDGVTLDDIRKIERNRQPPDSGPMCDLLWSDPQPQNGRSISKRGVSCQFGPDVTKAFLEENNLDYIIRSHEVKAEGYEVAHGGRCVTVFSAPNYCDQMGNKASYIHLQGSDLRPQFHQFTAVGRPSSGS
Sequence of Aryl hydrocarbon receptor (P35869 whole entry): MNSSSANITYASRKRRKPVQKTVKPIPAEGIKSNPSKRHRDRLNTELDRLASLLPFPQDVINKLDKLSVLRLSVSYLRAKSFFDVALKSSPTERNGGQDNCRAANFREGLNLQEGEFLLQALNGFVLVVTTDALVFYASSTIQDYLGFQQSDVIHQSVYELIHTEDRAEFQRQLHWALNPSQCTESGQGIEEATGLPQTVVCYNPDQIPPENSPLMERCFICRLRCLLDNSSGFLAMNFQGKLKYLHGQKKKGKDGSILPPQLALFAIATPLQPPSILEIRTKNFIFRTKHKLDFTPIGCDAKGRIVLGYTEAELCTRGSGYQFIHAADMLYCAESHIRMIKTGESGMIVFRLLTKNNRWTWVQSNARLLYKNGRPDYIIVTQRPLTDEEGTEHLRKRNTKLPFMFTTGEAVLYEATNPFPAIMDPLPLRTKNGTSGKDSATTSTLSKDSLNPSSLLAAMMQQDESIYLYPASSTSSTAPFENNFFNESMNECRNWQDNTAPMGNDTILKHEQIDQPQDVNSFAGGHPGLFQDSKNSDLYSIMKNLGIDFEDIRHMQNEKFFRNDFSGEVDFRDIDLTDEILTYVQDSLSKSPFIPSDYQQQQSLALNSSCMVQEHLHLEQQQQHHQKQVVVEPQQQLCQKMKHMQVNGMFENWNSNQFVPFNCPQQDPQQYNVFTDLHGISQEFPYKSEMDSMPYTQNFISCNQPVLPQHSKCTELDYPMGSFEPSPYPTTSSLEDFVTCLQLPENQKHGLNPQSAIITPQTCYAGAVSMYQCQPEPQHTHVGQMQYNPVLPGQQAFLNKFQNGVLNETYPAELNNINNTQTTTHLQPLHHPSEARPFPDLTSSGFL
Sequence of Luciferin 4-monooxygenase (P08659 whole entry): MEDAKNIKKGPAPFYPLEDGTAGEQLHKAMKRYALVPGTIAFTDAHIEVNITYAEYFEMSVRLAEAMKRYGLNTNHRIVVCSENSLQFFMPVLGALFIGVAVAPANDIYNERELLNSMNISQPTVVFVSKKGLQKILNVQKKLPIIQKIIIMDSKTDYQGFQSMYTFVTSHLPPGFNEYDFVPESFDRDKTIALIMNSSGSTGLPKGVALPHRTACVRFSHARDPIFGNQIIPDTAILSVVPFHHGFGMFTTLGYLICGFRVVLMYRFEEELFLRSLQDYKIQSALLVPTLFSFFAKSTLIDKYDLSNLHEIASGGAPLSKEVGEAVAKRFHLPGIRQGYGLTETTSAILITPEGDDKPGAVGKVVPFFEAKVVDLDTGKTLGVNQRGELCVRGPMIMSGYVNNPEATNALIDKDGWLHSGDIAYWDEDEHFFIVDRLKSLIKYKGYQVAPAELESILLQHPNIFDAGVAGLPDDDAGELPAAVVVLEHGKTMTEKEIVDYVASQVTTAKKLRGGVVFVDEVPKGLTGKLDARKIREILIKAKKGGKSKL

COc1cc2c(cc1OC)-c1cc(Nc3ccccc3C)nc(=O)n1CC2
EC50 [1]: > 112 µM (not active) | EC50 [2]: 17.8 µM (active) | EC50 [3]: 15.6 µM (active) | EC50 [4]: 49.5 µM (active) | EC50 [5]: < 0.3 µM (active) | EC50 [6]: 0.24 µM (active)

O=C(O)c1[nH]nnc1-c1ccccc1
IC50 [7]: 13 µM (not active) | IC50 [8]: > 67 µM (not active)

Cc1ccc(S(=O)(=O)N(C)C)cc1NC(=O)c1cncc(Br)c1
IC50 (Vero [9]): > 25 µM (active) | CC50 (Vero [10]): > 25 µM (active) | IC50 (Vero [11]): 32 µM (active)

Cc1nnc(SCC(=O)Nc2cccc(S(=O)(=O)N(C)c3ccccc3)c2)s1
IC50 (Galanin receptor type 2): > 42 µM (not active)

COc1ccc(/C=N/NC(=O)c2cccc(NC(=O)c3ccc(F)cc3)c2)c(C(=O)O)c1OC
EC50 [12]: 5.48 µM (active)

Cc1nn(-c2cccc3ccccc23)c(O)c1/C=N/c1sc2c(c1C#N)CCC2
AC50 [13]: 91.8 µM (active) | EC50 [14]: 6.13 µM (active)
